This passage reports TGI and GI50 results from PubChem BioAssay (NCI).

Some test systems named below: M14 melanoma; SF-295 CNS; A498 renal; HOP-62 NSCLC; SF-268 CNS; MOLT-4 leukemia; SR leukemia; UACC-257 melanoma; COLO 205 colon; MCF7 breast.
Holding throughout (assay): NCI anticancer screen, dose series, 48 h

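Cells were grown in 96-well plates and exposed to each compound for 48 hours at five concentrations; endpoints were interpolated linearly between bracketing concentrations, or set to the highest concentration if not reached. At the GI50, growth is halved. TGI: concentration producing complete growth inhibition.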

Consider `O=C(NC1CCCC1=O)c1ccccc1` (stereo not given), for which the TGI in the test on M14 melanoma, in the test with SF-295 CNS, with A498 renal, in the test on HOP-62 NSCLC, with SF-268 CNS and in the test with MOLT-4 leukemia was > 100 µM each time. For the same compound, the TGI with SR leukemia and in the test with UACC-257 melanoma was > 100 µM in each case.

`N#Cc1ccc(N=Cc2c([O-])ccc3ccccc23)cc1.[C-]#[O+].[C-]#[O+].[Ir]`: the GI50 with M14 melanoma was 5.22 µM; with SF-295 CNS it was 16.9 µM; in the test with A498 renal, 22.5 µM; with HOP-62 NSCLC, 20.6 µM; with SF-268 CNS, 14.8 µM; in the test on MOLT-4 leukemia, 4.16 µM. The GI50 with SR leukemia was 4.17 µM; in the test with COLO 205 colon it was 1.96 µM; in the test with UACC-257 melanoma, 10.6 µM. Besides, the TGI in the test with M14 melanoma amounted to 19 µM; in the test with SF-295 CNS, 35.7 µM; in the test with A498 renal it was 37.5 µM; with HOP-62 NSCLC, 42 µM; in the test on SF-268 CNS, 29.2 µM; with MOLT-4 leukemia it was 19.3 µM. For the same compound, the TGI in the test with SR leukemia came to 20.6 µM; with COLO 205 colon, 4 µM; in the test on UACC-257 melanoma, 29 µM.

Consider `CN1COc2c(n(C)c(=O)[nH]c2=O)C1`, for which the TGI in the test with M14 melanoma, in the test on SF-295 CNS, with A498 renal, in the test on HOP-62 NSCLC, in the test on SF-268 CNS and in the test on MOLT-4 leukemia was > 100 µM throughout. The TGI in the test on SR leukemia is > 80.6 µM; in the test with COLO 205 colon, > 100 µM; with UACC-257 melanoma, > 100 µM.

Take `CN(C)CCC(/C=C/c1ccccc1)=N\Nc1ccc(Cl)cc1Cl`: the TGI was determined as 26.6 µM in the test with M14 melanoma; 30.2 µM in the test with SF-295 CNS; 30.5 µM in the test with A498 renal; 27.9 µM in the test on HOP-62 NSCLC; 28.2 µM in the test on SF-268 CNS; 25.9 µM in the test on MOLT-4 leukemia. Further, the results for the TGI with SR leukemia, in the test with COLO 205 colon and in the test on UACC-257 melanoma were 23.9 µM, 28.1 µM and 27 µM, respectively.

As for `CN1CCN(Cc2ccc(NC(=O)c3[nH]ncc3Nc3ncnc4sc5c(c34)CCCC5)cc2)CC1`, the GI50 in the test with M14 melanoma was 0.324 µM; in the test on SF-295 CNS, 0.373 µM; with A498 renal, 0.0865 µM; in the test with HOP-62 NSCLC, 0.286 µM; in the test on SF-268 CNS, 0.438 µM; in the test on MOLT-4 leukemia it was 0.108 µM. Besides, the values for the GI50 in the test on SR leukemia and in the test on UACC-257 melanoma were 0.173 µM and 1.21 µM, respectively. The TGI was 1.64 µM in the test with M14 melanoma; 1.78 µM in the test on SF-295 CNS; 0.668 µM in the test with A498 renal; 1.45 µM in the test with HOP-62 NSCLC; 2 µM in the test on SF-268 CNS; 0.503 µM with MOLT-4 leukemia. For the same compound, the TGI with SR leukemia is 0.527 µM; with UACC-257 melanoma, 3.29 µM.

In the case of `CSC(=S)N/N=C(\C)c1cccc(C)n1`, the TGI was > 13.2 µM in the test on MCF7 breast; 1.6 µM in the test on M14 melanoma; 24.8 µM in the test with SF-295 CNS; 10.5 µM with A498 renal; 6.98 µM in the test on HOP-62 NSCLC; 46.7 µM in the test with SF-268 CNS. Further, the TGI in the test on SR leukemia is > 65.6 µM; in the test on COLO 205 colon it was 2.82 µM; in the test on UACC-257 melanoma, 21.9 µM.

In the case of `COC(=O)C(C)(C)N=CN(C)C`, the TGI in the test with M14 melanoma, in the test on SF-295 CNS, in the test with A498 renal, in the test on HOP-62 NSCLC, with SF-268 CNS and in the test with MOLT-4 leukemia was > 100 µM each time. For the same compound, the TGI with SR leukemia, in the test on COLO 205 colon and with UACC-257 melanoma was > 100 µM each time.

In the case of `CC(C)(C)CN1CCn2c(nc3c(N)nccc32)S1`, the GI50 is 3.97 µM in the test on MCF7 breast; 5.68 µM in the test with M14 melanoma; 12 µM in the test with SF-295 CNS; 17 µM with HOP-62 NSCLC; 12.5 µM in the test with SF-268 CNS; 5.55 µM in the test with MOLT-4 leukemia. For the same compound, the GI50 in the test with SR leukemia is 3.24 µM; with COLO 205 colon, 4.02 µM; with UACC-257 melanoma, 19.7 µM. In addition, the TGI with MCF7 breast is 37 µM; in the test with M14 melanoma it was 24.9 µM; in the test with SF-295 CNS, > 100 µM; in the test on HOP-62 NSCLC, > 100 µM; in the test on SF-268 CNS it was 34.9 µM; in the test with MOLT-4 leukemia, 82 µM. The results for the TGI in the test on SR leukemia, in the test with COLO 205 colon and with UACC-257 melanoma were 47.4 µM, 16.3 µM and 79.1 µM, respectively.

With `CC1(C)C2CCC13CS(=O)(=O)N1O[C@]13C(=O)O2` (stereo not given in full), the TGI with SF-295 CNS, in the test on A498 renal, in the test with HOP-62 NSCLC, in the test on SF-268 CNS, in the test with MOLT-4 leukemia and in the test on SR leukemia was > 100 µM in each case. Also, the TGI in the test with COLO 205 colon and in the test on UACC-257 melanoma was > 100 µM throughout.

Turning to `C[CH2][Pb]([CH2]C)([CH2]C)[O]C(=O)c1ccc2ccccc2n1`, the GI50 in the test with M14 melanoma, with SF-295 CNS, in the test with A498 renal, in the test with HOP-62 NSCLC, with SF-268 CNS and in the test on MOLT-4 leukemia was > 10 µM throughout. Moreover, the GI50 in the test on SR leukemia, with COLO 205 colon and in the test with UACC-257 melanoma was > 10 µM each time. Moreover, the TGI with M14 melanoma, with SF-295 CNS, with A498 renal, in the test on HOP-62 NSCLC, in the test with SF-268 CNS and with MOLT-4 leukemia was > 10 µM throughout. The TGI with SR leukemia, in the test on COLO 205 colon and with UACC-257 melanoma was > 10 µM in each case.

On to `CN1CCN(CC(O)COc2c(Br)c(Br)c(Br)c3c2OC(C)(C)C3)CC1` (stereo not given), for which the GI50 with MCF7 breast is 3.33 µM; with SF-295 CNS, 1.79 µM; in the test with A498 renal, 10.1 µM; with HOP-62 NSCLC, 4.26 µM; in the test with SF-268 CNS it was 5.79 µM; in the test with SR leukemia, 1.95 µM. Also, the TGI with MCF7 breast amounted to 14.5 µM; in the test with SF-295 CNS, 3.77 µM; in the test with A498 renal, 28.7 µM; with HOP-62 NSCLC, 25.1 µM; in the test on SF-268 CNS, 24.1 µM; in the test with SR leukemia, 4.75 µM.

Turning to `Fc1cccc(C2SCc3nc4ccccc4n32)c1F` (stereo not given), the TGI in the test on M14 melanoma was > 100 µM; in the test on SF-295 CNS, > 100 µM; in the test with A498 renal, > 100 µM; in the test on HOP-62 NSCLC, > 100 µM; with SF-268 CNS, > 100 µM; in the test on MOLT-4 leukemia, 68.5 µM. The TGI in the test with SR leukemia, with COLO 205 colon and in the test on UACC-257 melanoma was > 100 µM each time.

Regarding `Cc1ccc(S(=O)OC2C3CC4CC(C3)CC2C4)cc1` (stereo not given), the TGI in the test with M14 melanoma, with SF-295 CNS, in the test on A498 renal, with HOP-62 NSCLC, in the test with SF-268 CNS and in the test on MOLT-4 leukemia was > 100 µM throughout. In addition, the TGI in the test with SR leukemia, in the test on COLO 205 colon and in the test with UACC-257 melanoma was > 100 µM each time.

Turning to `O=C(O)/C(Cl)=C(\Cl)C(=O)Nc1ccc(Cl)c(Cl)c1Cl`, the TGI in the test with M14 melanoma was 32.5 µM; with SF-295 CNS, 33 µM; in the test with A498 renal, 95.6 µM; in the test with HOP-62 NSCLC it was 62.3 µM; in the test with SF-268 CNS, 42.8 µM; in the test on MOLT-4 leukemia it was 59.7 µM. The TGI in the test with SR leukemia was 70.1 µM; in the test on COLO 205 colon it was 34.8 µM; in the test on UACC-257 melanoma it was 36.2 µM.

As to `COc1ccc(C(=O)N2c3ccccc3Sc3ccccc32)c(OC)c1`, the GI50 is 0.45 µM in the test on MCF7 breast; 0.359 µM in the test on M14 melanoma; 0.484 µM in the test on SF-295 CNS; 0.307 µM in the test with A498 renal; 0.822 µM in the test on HOP-62 NSCLC; 0.853 µM in the test with SF-268 CNS. Further, the GI50 was 0.447 µM in the test on MOLT-4 leukemia, 0.562 µM in the test with SR leukemia and 27.8 µM in the test on UACC-257 melanoma. The TGI in the test with MCF7 breast was > 100 µM; in the test on M14 melanoma, > 100 µM; with SF-295 CNS, > 100 µM; in the test with A498 renal, 16.6 µM; in the test on HOP-62 NSCLC, > 100 µM; with SF-268 CNS, > 100 µM. Besides, the TGI in the test on MOLT-4 leukemia, in the test on SR leukemia and in the test on UACC-257 melanoma was > 100 µM each time.

For `Cn1c2ccccc2n2c(=O)c3c(c(C#N)c12)CCCC3`, the TGI in the test with M14 melanoma, in the test with SF-295 CNS, with A498 renal, with HOP-62 NSCLC, in the test with SF-268 CNS and in the test with MOLT-4 leukemia was > 100 µM in each case. Further, the TGI in the test with SR leukemia, in the test on COLO 205 colon and in the test on UACC-257 melanoma was > 100 µM in each case.

For `CN(C)c1ccc(/C=C2\C=Cc3ccccc32)cc1`, the TGI in the test on M14 melanoma, in the test on SF-295 CNS, in the test with A498 renal, in the test with HOP-62 NSCLC, in the test on SF-268 CNS and in the test with MOLT-4 leukemia was > 100 µM throughout. For the same compound, the TGI in the test on SR leukemia and with COLO 205 colon was > 100 µM in each case.

Turning to `CNS(=O)(=O)NNS(=O)(=O)c1ccc(Cl)cc1`, the TGI with M14 melanoma, in the test with SF-295 CNS, in the test on A498 renal, with HOP-62 NSCLC, with SF-268 CNS and in the test with MOLT-4 leukemia was > 100 µM in each case. Also, the TGI in the test with SR leukemia, in the test with COLO 205 colon and with UACC-257 melanoma was > 100 µM throughout.
